Test results published in patent publication US12103919B2, “3-(5-oxy)-1-oxoisoindolin-2-yl)piperidine-2,6-dione derivatives and uses thereof” (NOVARTIS AG, priority 2021, dated 2024).
Where two headings read alike, the source gives them in different places.

Target: T1, WIZ (Homo sapiens, UniProt O95785+Q96SW2)
T1 construct: expressed in transfected cells
Experiment: Quantification of WIZ protein levels in HiBit tag fusion protein assay (293T cells)
Type: cell-based
Parameters: Dmax: dose or concentration left out as unconfirmed
Settings: for DC50: read-out: WIZ AC50
How it was run: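 293T cells stably carrying a single-copy HiBit-WIZ fusion were exposed to compounds for about 18 hours at 37° C., top concentration 25 μM, 10-point 5-fold series. Lysates were complemented with LgBit and luminescence was read. Amax is the DMSO-normalized, curve-fitted percentage of WIZ-HiBit remaining at 25 uM.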

T1 sequence (O95785 whole entry): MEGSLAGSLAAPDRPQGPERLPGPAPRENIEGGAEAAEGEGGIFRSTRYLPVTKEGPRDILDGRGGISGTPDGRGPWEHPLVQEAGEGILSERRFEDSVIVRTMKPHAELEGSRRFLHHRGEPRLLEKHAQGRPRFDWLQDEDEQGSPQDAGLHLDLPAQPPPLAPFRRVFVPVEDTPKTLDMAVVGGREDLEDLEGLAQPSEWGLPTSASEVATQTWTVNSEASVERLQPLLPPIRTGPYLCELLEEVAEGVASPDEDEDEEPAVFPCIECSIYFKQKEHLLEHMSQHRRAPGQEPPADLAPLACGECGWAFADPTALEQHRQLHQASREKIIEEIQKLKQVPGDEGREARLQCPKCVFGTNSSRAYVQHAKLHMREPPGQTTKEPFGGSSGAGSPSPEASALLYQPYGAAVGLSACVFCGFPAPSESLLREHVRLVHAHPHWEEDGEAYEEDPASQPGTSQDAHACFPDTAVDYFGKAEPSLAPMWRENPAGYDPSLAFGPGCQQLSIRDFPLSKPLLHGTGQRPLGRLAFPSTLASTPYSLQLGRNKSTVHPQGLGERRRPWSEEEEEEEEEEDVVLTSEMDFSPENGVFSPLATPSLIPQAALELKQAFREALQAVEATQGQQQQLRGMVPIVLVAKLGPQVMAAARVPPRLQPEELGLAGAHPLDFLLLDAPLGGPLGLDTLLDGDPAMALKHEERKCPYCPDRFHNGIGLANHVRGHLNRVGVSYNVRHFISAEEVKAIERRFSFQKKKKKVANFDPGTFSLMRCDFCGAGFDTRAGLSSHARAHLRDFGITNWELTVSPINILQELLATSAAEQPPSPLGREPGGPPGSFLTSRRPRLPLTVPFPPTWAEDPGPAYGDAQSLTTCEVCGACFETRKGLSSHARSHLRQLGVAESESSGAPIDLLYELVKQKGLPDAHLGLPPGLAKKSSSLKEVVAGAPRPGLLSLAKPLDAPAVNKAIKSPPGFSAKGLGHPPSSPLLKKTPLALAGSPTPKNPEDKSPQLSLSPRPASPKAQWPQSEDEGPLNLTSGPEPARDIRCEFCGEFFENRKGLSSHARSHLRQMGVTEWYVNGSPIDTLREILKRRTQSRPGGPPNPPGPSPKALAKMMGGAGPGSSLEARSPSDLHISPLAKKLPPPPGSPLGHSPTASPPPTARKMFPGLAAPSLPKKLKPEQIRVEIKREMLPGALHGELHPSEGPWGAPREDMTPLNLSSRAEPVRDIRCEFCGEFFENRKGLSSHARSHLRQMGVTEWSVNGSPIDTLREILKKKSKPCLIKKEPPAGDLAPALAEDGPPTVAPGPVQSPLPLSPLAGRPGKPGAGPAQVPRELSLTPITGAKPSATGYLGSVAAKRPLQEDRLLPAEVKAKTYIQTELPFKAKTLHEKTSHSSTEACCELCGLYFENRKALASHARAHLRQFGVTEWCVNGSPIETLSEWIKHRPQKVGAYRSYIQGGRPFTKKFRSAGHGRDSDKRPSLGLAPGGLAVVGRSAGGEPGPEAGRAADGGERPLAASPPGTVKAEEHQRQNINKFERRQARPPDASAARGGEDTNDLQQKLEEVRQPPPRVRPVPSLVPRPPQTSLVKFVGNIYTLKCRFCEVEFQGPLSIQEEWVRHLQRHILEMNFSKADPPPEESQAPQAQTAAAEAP
T1 sequence (Q96SW2 whole entry): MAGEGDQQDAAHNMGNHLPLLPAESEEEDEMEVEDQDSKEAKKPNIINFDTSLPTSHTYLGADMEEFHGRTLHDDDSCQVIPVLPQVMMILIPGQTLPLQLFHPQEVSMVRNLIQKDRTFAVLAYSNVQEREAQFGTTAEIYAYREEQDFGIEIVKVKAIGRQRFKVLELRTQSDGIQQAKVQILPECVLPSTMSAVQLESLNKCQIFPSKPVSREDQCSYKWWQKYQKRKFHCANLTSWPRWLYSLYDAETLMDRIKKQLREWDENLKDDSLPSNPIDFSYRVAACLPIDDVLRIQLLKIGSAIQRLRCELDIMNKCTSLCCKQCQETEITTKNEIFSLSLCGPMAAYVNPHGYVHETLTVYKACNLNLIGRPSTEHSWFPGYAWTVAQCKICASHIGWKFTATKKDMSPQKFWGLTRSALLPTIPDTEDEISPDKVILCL
T1 sequence (Q16531 whole entry partner): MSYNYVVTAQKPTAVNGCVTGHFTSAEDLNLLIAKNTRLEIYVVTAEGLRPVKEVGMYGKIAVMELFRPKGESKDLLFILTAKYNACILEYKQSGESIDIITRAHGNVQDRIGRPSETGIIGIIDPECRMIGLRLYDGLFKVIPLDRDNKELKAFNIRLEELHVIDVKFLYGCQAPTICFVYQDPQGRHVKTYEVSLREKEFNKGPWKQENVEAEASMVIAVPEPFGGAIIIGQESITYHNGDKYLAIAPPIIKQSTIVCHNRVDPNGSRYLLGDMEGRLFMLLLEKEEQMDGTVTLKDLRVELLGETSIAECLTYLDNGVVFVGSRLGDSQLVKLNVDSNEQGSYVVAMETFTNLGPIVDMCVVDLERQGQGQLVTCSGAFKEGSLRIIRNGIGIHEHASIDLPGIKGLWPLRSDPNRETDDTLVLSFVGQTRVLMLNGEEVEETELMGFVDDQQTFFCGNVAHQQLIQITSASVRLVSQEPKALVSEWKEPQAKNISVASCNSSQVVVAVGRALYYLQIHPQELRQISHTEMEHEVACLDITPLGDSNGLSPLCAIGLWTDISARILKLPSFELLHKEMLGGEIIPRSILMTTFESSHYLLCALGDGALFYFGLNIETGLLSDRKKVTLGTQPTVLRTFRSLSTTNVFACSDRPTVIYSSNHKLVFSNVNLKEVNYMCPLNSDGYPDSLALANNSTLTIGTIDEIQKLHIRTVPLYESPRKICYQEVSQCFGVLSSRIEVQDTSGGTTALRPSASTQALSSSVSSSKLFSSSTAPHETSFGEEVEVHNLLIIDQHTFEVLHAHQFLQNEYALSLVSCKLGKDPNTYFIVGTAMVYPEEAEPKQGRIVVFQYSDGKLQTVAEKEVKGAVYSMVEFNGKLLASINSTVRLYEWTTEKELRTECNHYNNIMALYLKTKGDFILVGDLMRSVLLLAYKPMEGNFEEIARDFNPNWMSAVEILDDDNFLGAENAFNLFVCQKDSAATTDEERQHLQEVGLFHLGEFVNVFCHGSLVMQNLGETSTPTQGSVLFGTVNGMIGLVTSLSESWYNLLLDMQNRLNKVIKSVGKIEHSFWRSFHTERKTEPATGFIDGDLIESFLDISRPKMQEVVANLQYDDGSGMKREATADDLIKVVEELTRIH

CCN1CCC[C@@H](Oc2ccc3c(c2)CN(C2CCC(=O)NC2=O)C3=O)C1 (mixture of isomers) [Example 1, 3-(5-(((R)-1-ethylpiperidin-3-yl)oxy)-1-oxoisoindolin-2-yl)piperidine-2,6-dione] gave a Dmax (HEK-293T, read-out: % degradation of WIZ (100 − Amax)) of 76%, a remaining activity at 25 µM (HEK-293T, read-out: WIZ Amax) of 24% and a DC50 (WIZ HiBit assay in 293T cells, about 18 hours, 10-point 5-fold dilution, top 25 μM) of 16 nM. For the same molecule, the DC50 (updated arithmatic mean over the number of repeats specified, assay of Example 89) was 16 nM.
